For 51 compounds, photoluminescence quantum yield results are on record in the Deep4Chem optical property database.

A short description of the data set: photoluminescence quantum yield (fraction); solvent given as SMILES.
Setting [1] is: in O=P(c1ccccc1)(c1ccccc1)c1ccccc1Oc1ccccc1P(=O)(c1ccccc1)c1ccccc1.

As for `Cc1cc(C2=Cc3cccc[n+]3[B-](F)(F)O2)ccc1N(C)C`, the photoluminescence quantum yield (in ClC(Cl)Cl) was found to be 0.688.
For `CCOC(=O)c1ccccc1-c1c2ccc(=[N+](CC)CC)cc-2oc2cc(N(CC)CC)ccc12`, the photoluminescence quantum yield runs as follows: (in CC#N) 0.39; (in CCO) 0.69; (in CN(C)C=O) 0.39; (in O) 0.34.
Compound `COc1ccc(C)cc1C1=C2C=CC(=[N+](C)C)C=C2[Si](C)(C)c2cc(N(C)C)ccc21` registered a photoluminescence quantum yield (in O) of 0.28.
Turning to `Cc1ccc(/C2=c3\cc/c(o3)=C(\c3ccc(C)cc3)c3ccc([nH]3)-c3ccc4n3[B-](F)(F)[N+]3=C(C=CC3=C4c3ccco3)c3ccc2[nH]3)cc1`, for the setting “in ClC(Cl)Cl”, the photoluminescence quantum yield came out at 0.08.
Take `CCOC(=O)/C=C/C1=C(c2ccc(C)cc2)C2=Nc3c(-c4ccc(C)cc4)c(Br)c(-c4ccc(C)cc4)n3[B-](F)(F)[N+]2=C1c1ccc(C)cc1`: the photoluminescence quantum yield (in ClC(Cl)Cl) turned out to be 0.03.
Regarding `COC(=O)c1cc(=O)n(C)c2cc(-c3ccc(N4CCN(C)CC4)cc3)sc12`, the photoluminescence quantum yield runs as follows: (in CC#N) 0.03; (in ClCCl) 0.99.
Compound `CCCCN(CCCC)c1ccc2c(c1)C#CC#Cc1cc(C(F)(F)F)ccc1C#Cc1cc(c3cc1C#Cc1ccc(C(F)(F)F)cc1C#CC#Cc1cc(N(CCCC)CCCC)ccc1C#C3)C#C2` yielded a photoluminescence quantum yield (in ClCCl) of 0.23.
Still for that read-out and setting: as for `COC(=O)c1cc(=O)n(C)c2cc(-c3ccccc3N(C)C)sc12`, the figure is 0.17.
Still for that read-out and setting: as for `N#CC(C#N)=Cc1ccc2c(c1)c1cc(C=C(C#N)C#N)ccc1n2-c1cccc2ccccc12`, the figure is 0.07; as for `c1ccc(B2Nc3cc4c(cc3-c3sccc32)NB(c2ccccc2)c2ccsc2-4)cc1`, 0.17; as for `CCCCCCN1C(=O)c2cccc3c(-c4ccc(-c5cc(-c6ccc(OC)cc6)n(-c6ccccc6)n5)s4)ccc(c23)C1=O`, 0.38.
As to `COc1cc(OC)cc(C2=C3C(C)=C(I)C(/C=C/c4c[nH]c5ccc([N+](=O)[O-])cc45)=[N+]3[B-](F)(F)n3c(/C=C/c4c[nH]c5ccc([N+](=O)[O-])cc45)c(I)c(C)c32)c1`, the photoluminescence quantum yield reads like this: (in C1CCOC1) 0.03; (in CS(C)=O) 0.02; (in ClCCl) 0.02.
Take `CCCCc1cc2cccc[n+]2[b-]2c(-c3cccc4[b-]3[n+]3ccccc3cc4CCCC)cccc21`: the photoluminescence quantum yield (in C1CCCCC1) stood at 0.03.
As to `c1csc(-c2c3ccc(=[N+]4CCCCC4)cc-3oc3cc(N4CCCCC4)ccc23)c1`, the photoluminescence quantum yield (in CCO) stood at 0.1 and the photoluminescence quantum yield (in ClCCl) turned out to be 0.33.
Take `Cc1cc(C)c2c(c1)nc1c(=O)n(C)c(=O)nc-1n2C`: the photoluminescence quantum yield (in CC#N) came out at 0.18.
Consider `CCCCCCCCC1(CCCCCCCC)c2cc3c(cc2-c2sc(-c4ccc(/C=C5\SC(SCC)=NC5=O)c5nsnc45)cc21)C(CCCCCCCC)(CCCCCCCC)c1cc(-c2ccc(/C=C4\SC(SCC)=NC4=O)c4nsnc24)sc1-3`, for which the photoluminescence quantum yield reads like this: (in C1CCOC1) 0.053; (in ClC(Cl)Cl) 0.059.
Where the note is “in ClC(Cl)Cl”, `CCCCCCCCOc1ccc(-c2c3c4n(c(-c5ccc(OCCCCCCCC)cc5)c3c3n2[B-](c2ccccc2)(c2ccccc2)[n+]2c(ccc5cc(C(C)(C)C)ccc52)C=3C#N)[B-](c2ccccc2)(c2ccccc2)[n+]2c(ccc3cc(C(C)(C)C)ccc32)C=4C#N)cc1` returned a photoluminescence quantum yield of 0.53.
Still for that read-out and setting: as for `F[B-]1(F)OC(c2ccc(N3CCCC3)cc2)=Cc2cccc[n+]21`, the figure is 0.542.
As to `Cc1cc(C)c(B2c3cc(C(C)(C)C)ccc3-c3c(-c4ccccc4)ccc4cc(C(C)(C)C)cc2c34)c(C)c1`, the photoluminescence quantum yield (in C1CCCCC1) came out at 0.91.
Under “in ClCCl”, `c1ccc(-c2c3ccccc3nc3cc4ccccc4cc23)cc1` had a photoluminescence quantum yield of 0.4.
The compound `F[B-]1(F)OC(c2ccccc2)=Cc2cc3[n+](c[n+]21)[B-](F)(F)OC(c1ccccc1)=C3` had a photoluminescence quantum yield (in ClCCl) of 0.55.
Take `COC(=O)[C@@]12N=N[C@@H](C3C[C@H]31)[C@@H]1C[C@@H]12` (some centres not stated): where the note is “in CC#N”, the photoluminescence quantum yield was 0.0066.
Same read-out and setting: as for `CN(C)C1=Nc2cccc3cccc1c23`, the figure is 0.0066.
As for `COc1nnc(Cl)nn1`, the photoluminescence quantum yield by setting is: (in ClCCl) 0.38; (in OCC(F)(F)F) 0.26.
Compound `Cc1cc(C)c(B(c2cc(-c3ccc(C(C)(C)C)cc3)sc2-c2sc(-c3ccc(C(C)(C)C)cc3)cc2P(=O)(c2ccccc2)c2ccccc2)c2c(C)cc(C)cc2C)c(C)c1` showed a photoluminescence quantum yield (in CO) of 0.54.
Take `COCCOCCOCCOc1ccc(/C=C/C2=[N+]3C(=C(c4cc(OC)cc(OC)c4)c4c(C)c(I)c(/C=C/c5ccc(OCCOCCOCCOC)cc5)n4[B-]3(F)F)C(C)=C2I)cc1`: the photoluminescence quantum yield was determined as 0.19 (in C1CCOC1), 0.17 (in CS(C)=O) and 0.24 (in ClCCl).
`CC1(C)c2ccccc2N(c2ccc3c(c2)C(C)(C)c2cc(N4c5ccccc5C(C)(C)c5ccccc54)ccc2S3(=O)=O)c2ccccc21` returned a photoluminescence quantum yield under setting [1] of 0.8.
On to `CN(C)c1ccc(C2=Nc3sc4c(F)c(F)c(F)c(F)c4[n+]3[B-](F)(F)O2)cc1`, for which the photoluminescence quantum yield reads like this: (in C1CCOC1) 0.47; (in CC#N) 0.02; (in Cc1ccccc1) 0.65; (in ClCCl) 0.66.
`CC1(C)c2ccccc2N(c2c(F)cc(-c3nnc(-c4ccccc4)o3)cc2F)c2ccccc21`: the photoluminescence quantum yield is, setting by setting: (in Cc1ccccc1) 0.24; under setting [1], 0.72.
On to `CCC1=C(C)C2=Cc3c4ccccc4c4n3[B-](c3ccc(OC)cc3)(Oc3ccccc3-4)[N+]2=C1C` (configuration not stated), for which the photoluminescence quantum yield is, setting by setting: (in CC#N) 0.67; (in CCCCCC) 0.71; (in Cc1ccccc1) 0.68; (in ClCCl) 0.7.
For `COc1ccc(-c2oc3cccc4c5c(-c6ccc(OC)c(OC)c6)c(=N)oc6cccc(c2c34)c65)cc1OC`, the photoluminescence quantum yield (in ClC(Cl)Cl) came out at 0.41.
`F[B-]12Oc3ccccc3-c3c4[n+]5c(c([n+]31)-c1ccccc1O2)-c1ccccc1O[B-]5(F)Oc1ccccc1-4` displayed a photoluminescence quantum yield (in ClCCl) of 0.29.
In the case of `CCN1C(=CC2=C([O-])C(=CC3=[N+](CC)c4ccccc4C3(C)C)C2=O)C(C)(C)c2ccccc21`, the photoluminescence quantum yield (in CC(C)O) was found to be 0.09.
Compound `C(#Cc1nccnc1C#Cc1ccccc1)c1ccccc1` had a photoluminescence quantum yield (in CC#N) of 0.07.
For `N#Cc1c(-n2c3ccccc3c3ccccc32)c(F)c(-n2c3ccccc3c3ccccc32)c(F)c1-n1c2ccccc2c2ccccc21`, the photoluminescence quantum yield reads like this: (in Cc1ccccc1) 0.76; (in c1ccc([Si](c2ccccc2)(c2ccc(-n3c4ccccc4c4ccccc43)cc2)c2ccc(-n3c4ccccc4c4ccccc43)cc2)cc1) 0.74.
As to `CCn1c2ccccc2c2cc(-c3cc(-c4ccc5c(c4)c4ccccc4n5CC)nc(S(C)(=O)=O)n3)ccc21`, the photoluminescence quantum yield is 0.61 (in C1CCOC1); 0.76 (in CCOC(C)=O); 0.6 (in CN(C)C=O); 0.77 (in Cc1ccccc1); 0.72 (in ClCCl).
As for `CCOC(CN1C(=O)C2=C(c3ccsc3)N(CC(OCC)OCC)C(=O)C2=C1c1ccsc1)OCC`, for the setting “in ClC(Cl)Cl”, the photoluminescence quantum yield came to 0.9.
Consider `CN1C(C(=O)Nc2ccccn2)=C(O)c2sccc2S1(=O)=O`, for which the photoluminescence quantum yield by setting is: (in C1COCCO1) 0.0191; (in CC#N) 0.00752; (in CCCCO) 0.0169; (in CCCO) 0.0108; (in CCO) 0.00738; (in CCOC(C)=O) 0.0275. This compound also displayed a photoluminescence quantum yield (in CO) of 0.00499.
In turn, `COc1ccc(-c2cnc3cccc(-c4ccccc4)n23)cc1` returned a photoluminescence quantum yield (in ClCCl) of 0.26.
Consider `CC(=O)Nc1ccc(O)cc1`, for which the photoluminescence quantum yield came out at 0.0031 (in C1CCOC1); 0.0035 (in CC#N); 0.0007 (in CCCCO); 0.0037 (in CO); 0.0022 (in CS(C)=O).
For the compound `C[Si](C)(c1c2ccccc2cc2ccccc12)[Si](C)(C)c1c2ccccc2cc2ccccc12`, the photoluminescence quantum yield (in C1CCCCC1) worked out at 0.07 and the photoluminescence quantum yield (in CC#N) was 0.07.
Under “in ClC(Cl)Cl”, `CCOC(CN1C(=O)C2=C(c3cccs3)N(CC(OCC)OCC)C(=O)C2=C1c1cccs1)OCC` registered a photoluminescence quantum yield of 0.41.
As to `c1ccc2nc3cccc(-c4ccc(-n5c6ccccc6c6ccccc65)cc4)c3cc2c1`, the photoluminescence quantum yield is, setting by setting: (in CC#N) 0.325; (in CCCCCC) 0.0319; (in CCOCC) 0.102; (in ClCCl) 0.253.
The compound `c1ccc(-c2cn3ccc[n+]3[n-]2)cc1` displayed a photoluminescence quantum yield (in ClCCl) of 0.03.
With `CCOC(=O)c1c2c3c(ccc(Br)c3c3cc4c(cc13)[Si](C)(C)O[Si]4(C)C)N(C)C2=O`, the photoluminescence quantum yield (in CC#N) was 0.31.
In turn, `COc1ccc2cc(/C=C/C3=C4CCc5ccccc5C4=[O+][B-](F)(F)O3)ccc2c1` showed a photoluminescence quantum yield (in ClCCl) of 0.33.
As for `COC(=O)C(NC(=O)OC(C)(C)C)c1ccc2oc(-c3ccc(OC(=O)c4ccccc4)cc3OC(=O)c3ccccc3)nc2c1` (configuration not stated), the photoluminescence quantum yield worked out at 0.003 (in CC1CCCCC1), 0.003 (in CC#N) and 0.002 (in CO).
`CC1(C)C(/C=C/C2=C(c3ccc(C(=O)O)cc3)C(=C/C=C3/N(CCCCS(=O)(=O)[O-])c4ccc(S(=O)(=O)[O-])cc4C3(C)C)/CCC2)=[N+](CCCCS(=O)(=O)[O-])c2ccc(S(=O)(=O)[O-])cc21` yielded a photoluminescence quantum yield (in CO) of 0.1.
`CC1=C(Br)C(C)=[N+]2C1=C(c1c(-c3ccccn3)nc3ccccn13)c1c(C)c(Br)c(C)n1[B-]2(F)F` displayed a photoluminescence quantum yield (in ClCCl) of 0.0641.
Still for that read-out and setting: then `COC(=O)/C=C/C=C/C1=CC2=C(c3c(C)cc(C)cc3C)c3cc(/C=C/C=C/C(=O)OC)cn3[B-](F)(F)[N+]2=C1`, with 0.054.
On to `CCCN1/C(=C/C=C(/C=C/c2sc3ccccc3[n+]2CCC)c2ccc([N+](=O)[O-])cc2)Sc2ccccc21`, for which the photoluminescence quantum yield was 0.05 (in CO), 0.02 (in CS(C)=O) and 0.02 (in O).
